Data as given in publication PMC7870075, “Physicochemical properties and formulation development of a novel compound inhibiting Staphylococcus aureus biofilm formation” (PLoS ONE, 2021).
Values joined by “and” are separate entries in the source; they are usually repeats but may differ in a detail not shown here. Equal entries are not always repeated.

Tested on: S. aureus NRS384 strain
Assay: Biofilm assay (96-well microtiter plate, crystal violet staining)
Type: cell-based, Staphylococcus aureus
Conditions: for Inhibition of biofilm formation (vs treated with DMSO %): NRS384, single replicates
Procedure: Methicillin-resistant Staphylococcus aureus (MRSA) USA300 strain NRS384 (Strain USA300-0114, NR-46070), was provided by the Network on Antimicrobial Resistance in Staphylococcus aureus (NARSA) for distribution by BEI Resources, NIAID, NIH. The NRS384 strain was grown in Todd-Hewitt broth containing 0.2% yeast extract (THY) (Difco, Detroit, MI, USA). The medium for growth of static biofilms was THY with 0.5% glucose. All bacterial cultures were incubated at 37°C.
The biofilm assay was performed using 96-well polystyrene flat-bottom microtiter plate as described previously. Overnight cultures of S. aureus were diluted 1:200 with fresh THY medium containing 0.5% glucose. […] Non-adherent bacteria were washed away by PBS three times. Biofilms attached to microtiter plates were stained by crystal violet solution (Sigma-Aldrich, St. Louis, MO, USA) for 15 min. Excess stain was removed by washing with PBS. The crystal violet attached to biofilm samples was dissolved with ethanol. The absorbance at 595 nm was measured using Spectrostar Nano spectrophotometer (BMG Labtech, Ortenberg, Germany) as the value of biofilm formation. Percentage inhibition of sample treated with CCG-211790 was calculated against the mean of samples treated with DMSO. […] IC50 (the half maximal inhibitory concentration) was estimated.
Statistical analysis of the results was performed using a two-sided Student’s t-test. Dose Response fitting function in Origin was used to calculate the IC50. The IC50 was calculated by plotting the inhibition percentage (y) versus logarithm of dose (x), and fitting the data using the equation y=A1+A2−A1/1+10^(Logx0−x)p . IC50 was calculated as 10^logx0 . A1 stands for bottom asymptote, A2 stands for top asymptote and p is the hill slope (Origin 7.0, OriginLab Corporation, Northampton, MA, USA).

IC50 (Staphylococcus aureus, MRSA / NRS 384 / USA300, S. aureus NRS384 (MRSA USA300), overnight 37°C, crystal violet, read-out: IC50 of the inhibition of biofilm formation): 1280 ± 450 nM
Structure (SMILES): COc1ccc2c(c1)-c1nc(SCC(F)(F)F)n(C)c(=O)c1C(C)(C)C2 [CCG-211790, 9-Methoxy-3,5,5-trimethyl-2-((2,2,2-trifluoroethyl)thio)-5,6-dihydrobenzo[h]quinazolin-4(3H)-one]
Inhibition of biofilm formation (vs treated with DMSO %) (0.39 µM): 3.94% and -13.46% and 12.53% and 16.63% and 8.53% and 4.38% and 18.40% and 26.22% and 15.26%
Inhibition of biofilm formation (vs treated with DMSO %) (0.78 µM): 8.82% and 2.09% and 10.90% and 24.07% and 16.41% and 12.91% and 26.42% and 26.03% and 21.14%
Inhibition of biofilm formation (vs treated with DMSO %) (1.56 µM): 29.00% and 47.10% and 40.37% and 45.73% and 49.67% and 47.05% and 51.47% and 53.42% and 52.45%
Inhibition of biofilm formation (vs treated with DMSO %) (3.13 µM): 41.76% and 55.22% and 48.72% and 60.18% and 56.46% and 59.74% and 54.01% and 55.58% and 57.14%
Inhibition of biofilm formation (vs treated with DMSO %) (6.25 µM): 62.41% and 64.27% and 61.48% and 70.02% and 63.24% and 70.24% and 69.08% and 70.25% and 66.93%
Inhibition of biofilm formation (vs treated with DMSO %) (12.50 µM): 65.20% and 63.57% and 64.97% and 75.93% and 70.24% and 70.02% and 75.73% and 75.34% and 73.19%
Inhibition of biofilm formation (vs treated with DMSO %) (25.00 µM): 70.30% and 69.84% and 74.25% and 79.43% and 78.99% and 75.05% and 76.52% and 81.02% and 80.63%
Inhibition of biofilm formation (vs treated with DMSO %) (50.00 µM): 79.58% and 79.12% and 79.35% and 82.49% and 82.28% (2×) and 80.23% and 79.06% and 83.76%
